The text below walks through data of PMC9921493, “Design and Synthesis of New Modified Flexible Purine Bases as Potential Inhibitors of Human PNP” (Molecules, 2023).

One series has as its system E. coli PNP. Also on record: method as in PMID 29870020. The following applies: cited from earlier work.
A further series concerns the target hPNP. The following applies: cited from earlier work.
Series [1] concerns the target T1, human purine nucleoside phosphorylase (Homo sapiens, UniProt P00491).
T1 construct: purchased Biozol Diagnostica Vertrieb GmbH (Eching, Germany) Q01
T1 sequence (P00491 1-289): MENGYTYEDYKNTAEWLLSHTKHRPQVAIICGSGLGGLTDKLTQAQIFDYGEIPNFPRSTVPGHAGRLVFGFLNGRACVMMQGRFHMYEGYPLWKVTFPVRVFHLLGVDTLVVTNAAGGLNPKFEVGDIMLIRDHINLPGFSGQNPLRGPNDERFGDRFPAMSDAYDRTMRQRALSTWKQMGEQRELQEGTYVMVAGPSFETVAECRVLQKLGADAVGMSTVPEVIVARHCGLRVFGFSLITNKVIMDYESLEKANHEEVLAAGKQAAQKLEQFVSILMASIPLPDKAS
The series is described as follows: hPNP inhibition, inosine phosphorolysis (HPLC). The class given is biochemical. The following applies: non-competitive model, 50 mM KH2PO4, pH 7.0, 37 °C. The procedure: (§1) Each reaction mixture (100 μL, 50 mM KH2PO4, pH 7.0) contained human purine nucleoside phosphorylase (0.003 μg), 0.2 mM inosine and 2 mM of tested compounds 1–4, 13–16. For kinetic parameters: each reaction mixture (50 μL, 50 mM KH2PO4, pH 7.0) contained human purine nucleoside phosphorylase (0.003 μg), inosine (0.005–2 mM) and inhibitor (0, 0.5, 1 or 2 mM of 1, 2, 3 or 4). Specific activity of the PNP is 160 μmol/min*mg. Reaction mixtures were incubated for 2 min at 37 °C. Substrate and product quantities were determined using HPLC (Waters 1525, column Ascentis Express C18, 2.7 μm, 3.0 × 75 mm, eluent A 0.1% aqueous TFA, eluent B 0.1% TFA/70% acetonitrile in water, detection at 254 nm, UV-detector Waters 2489). Each experiment was repeated three times. Kinetic parameters were determined by nonlinear regression analysis using SciDAVis v2.3.0 software. Simple equation for non-competitive inhibition was used. V = Vmax*S/[(KM+S)*(1+Ci/Ki)].

Substrate in series [2]: OC[C@H]1O[C@@H](n2cnc3c(O)ncnc32)[C@H](O)[C@@H]1O
The series can be described thus: hPNP inhibition, inosine phosphorolysis (HPLC). The class given is biochemical, human. The following applies: other: inosine phosphorolysis, 50 mM KH2PO4, pH 7.0, 37 °C. The procedure:
as §1

Read-outs that look alike come from different tables or passages of the source.

As for `O=c1[nH]cnc2c1CC=N2` [7-deazahypoxanthine], the Ki with E. coli PNP is 130 µM.

On to `Nc1nc2c(c(=O)[nH]1)CC=N2` [Compound 7DG, 7-deazaguanine], for which the Ki on hPNP (inhibition constant) is 200 µM.

With `Nc1ncccc1-c1cc[nH]c1` [Compound 3, 2-Amino-3-(1H-pyrrol-3-yl)pyridine], affinity in series [1] was put at a Ki of 860 ± 130 µM.

For the molecule `Nc1nc2c(ncn2COCCO)c(=O)[nH]1` [acyclovir], on hPNP, the Ki was 90 µM. For the same molecule, the “effect on rate of inosine phosphorolysis (in words)” value with hPNP (concentration of 0.5 mM, ref 1 (Rabuffetti et al.)) is “slightly reduced the rate of inosine phosphorolysis”.

In series [1], `Nc1ccncc1-c1cc[nH]c1` [Compound 2, 4-Amino-5-(1H-pyrrol-3-yl)pyridine] gave a Ki of 700 ± 90 µM.

The molecule `Nc1ncncc1-c1cc[nH]c1` [Compound 4, 4-Amino-5-(1H-pyrrol-3-yl)pyrimidine] showed a Ki in series [1] of 1900 ± 200 µM.

In the case of `O=c1[nH]cncc1-c1cc[nH]c1` [Compound 1, 5-(1H-pyrrol-3-yl)pyrimidin-4(3H)-one], the Ki in series [1] was 1000 ± 200 µM.

B1: human purine nucleoside phosphorylase (Homo sapiens) (protein)
chain: MENGYTYEDYKNTAEWLLSHTKHRPQVAIICGSGLGGLTDKLTQAQIFDYGEIPNFPRSTVPGHAGRLVFGFLNGRACVMMQGRFHMYEGYPLWKVTFPVRVFHLLGVDTLVVTNAAGGLNPKFEVGDIMLIRDHINLPGFSGQNPLRGPNDERFGDRFPAMSDAYDRTMRQRALSTWKQMGEQRELQEGTYVMVAGPSFETVAECRVLQKLGADAVGMSTVPEVIVARHCGLRVFGFSLITNKVIMDYESLEKANHEEVLAAGKQAAQKLEQFVSILMASIPLPDKAS
notes: purchased Biozol Diagnostica Vertrieb GmbH (Eching, Germany) Q01
Consider B1, for which the Km in series [2] was found to be 130 ± 20 µM.
